In patent US9862690B2, “Treatment of pulmonary and other conditions” (University of Pittsburgh—of the Commonwealth System of …, priority 2013, dated 2018):

Key:
[1] = Nebulization of PB141: aerosol droplet size by Andersen cascade impactor; assay type: physicochemical; conditions: dissolved in water or PBS; micropump nebulizer, 10 L of air/min
Method: PB141 was dissolved in water or different concentrations of PBS and the solutions were aerosolized using a micropump nebulizer (Buxco Research Systems, Wilmington, N.C.) flowing at 10 L of air/min. Aerosol droplet size was measured with an Andersen cascade impactor. (A) Distribution of PB141 aerosol droplet sizes. (B) The concentration of PB141 during a 30 min nebulization period was measured by collecting samples during nebulization and analyzing by spectrophotometer in two independent experiments.
PB141 was dissolved in water or different concentrations of PBS and aerosols were generated using a micropump nebulizer (Buxco Research Systems, Wilmington, N.C.) flowing at 10 L of air/min. Aerosol droplet size was measured with an Andersen cascade impactor. The concentration of PB141 during a 30-min nebulization period was measured by collecting samples during nebulization and analyzing them by spectrophotometer in […]. […] Nebulization was optimal for a solution of PB141 in 2% saline, although a formulation in pure water was also effective.

[2] = system: pulmonary fibrosis in mice; experiment: Pulmonary fibrosis model (bleomycin, asbestos or X-ray induced); assay type: in vivo
Method: Induction of pulmonary fibrosis by intratracheal injection of bleomycin sulphate (BLM; 0.05 units) was followed by nebulization of PB141 (25 mg/kg) or vehicle (saline) and delivery to cage air via a micropump nebulizer. After 21 days lung samples were obtained. (A) Lung hydroxyproline content. (B) Lung fibrinolysis. (C) Lung collagen content. (D) Lung TGF-β content. Data are representative of one of two independent experiments with n=5-7 mice per group; ** p<0.01, *** p<0.001.
Lung fibrosis was induced by methods previously reported in literature of the relevant art. Briefly, 50 μl of bleomycin sulfate in saline or 0.1 mg of NIEHS crocidolite asbestos (N 10 μm in length) was administered intratracheally into anesthetized mice. In some experiments fibrosis was induced by the following standard X-ray exposure procedure: Anesthetized mice at the age of 10-12 weeks were immobilized, with a lead shield excluding all but the thoracic cavity. Animals were then irradiated with a single dose of 14.5 Gy from a cesium source (J. L. Shepherd and Associates, San Fernando, Calif.) at a dose rate of 1.65 Gy/min LD50 for C57BL/6J mice is 14.5 Gy. At this dose, survival is sufficient to permit adequate numbers of animals for long-term analyses.
After induction of pulmonary fibrosis using the methods as described above, PB141 (25 mg/kg) dissolved in normal saline was delivered for 30 min via a micropump nebulizer (Buxco Research Systems, Wilmington, N.C.) fitted at the chamber inlet. After 21 days, bronchoalveolar lavage fluid (BALF) samples were obtained and analyzed for cellular infiltration by hemocytometer and differential staining of cells. Pulmonary fibrosis was assessed from lung homogenates by estimating total lung collagen content using the Sircol Collagen Assay kit (Biocolor) and hydroxyproline content using a hydroxyproline assay kit (BioVision, Mountain View, Calif.) according to the manufacturer's instructions. Lung histology sections were assessed by morphometry, hematoxylin and eosin (H&E) staining, and Masson's trichrome staining.

[3] = system: NNK-induced lung tumorigenesis in A/J mice; experiment: NNK-induced lung tumorigenesis in A/J mice; assay type: in vivo; conditions: 25 mg/kg nebulized 30 min/day for eight weeks
Method: Induction of lung tumorigenesis by intraperitoneal (i.p.) injection on days 1, 3, and 5 with 50 mg/kg of NNK dissolved in saline was followed by nebulization of PB141 (25 mg/kg) or vehicle (saline) and delivery to cage air via a micropump nebulizer. After 8 weeks the lung was examined histologically following H&E staining. (A) Number of lung lesions. (B) Histology showing lung tumor incidence and burden. Data are representative of one of two independent experiments with n=9-11 mice per group.
A/J mice were injected intraperitoneally on days 1, 3, and 5 with 50 mg/kg of 4-methylnitrosamino-1-(3-pyridyl)-1-butanone (NNK; Chemsyn Science Laboratories, Lenexa, Kans.) dissolved in saline. The mice were then held for 8 weeks to allow development of preinvasive lesions: alveolar hyperplasias and adenomas. […]
Mice were euthanized following the eight-week treatment period. […] Lung lesions were quantified by determining the incidence and prevalence of pulmonary pleural surface tumors, counting both the right and left lungs of each mouse. […] Hyperplastic and neoplastic lesions of the lungs were scored according to the International Classification of Rodent Tumors in 6 or 7 sections per lung. Sections were further assessed for morphometry and Ki67 immunohistochemistry.

CC(=O)N[C@@H](CSC(CC(=O)CC(SC[C@H](NC(C)=O)C(=O)O)c1cnccn1)c1cnccn1)C(=O)O (stereo partly shown) [PB141]
Aerosol droplet size [1]: 1-2 μm | Collagen production ([2]; 25 mg/kg nebulized, 21 days): effectively prevented | Inflammatory cell infiltration ([2]; 25 mg/kg nebulized, 21 days): effectively prevented | Myofibroblast differentiation ([2]; 25 mg/kg nebulized, 21 days): effectively prevented | Tolerability of the solution ([2]; even with intratracheal administration): well tolerated | Pulmonary fibrosis ([2]; repeated pulmonary dosing, 25 mg/kg): significantly reduced | Inhibition of tumor progression, premalignant lung cancer, and cell proliferation [3]: ~40%
